Six molecules from patent US20160046604A1, “HETEROARYL SUBSTITUTED INDAZOLES” (BAYER PHARMA AKTIENGESELLSCHAFT, priority 2013, published 2016) can be followed below.

Experiment [1] deals with HeLa human cervical tumor cells. Description: Proliferation assay (HeLa cell line).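 Further: crystal violet staining, absorbance at 595 nm, 0.001–10 µM test range, 4-day exposure, 0% is cell number at dosing and 100% untreated growth, IC50 from 4-parameter fit.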 The note with it: 96 h, read-out: Biological Assay 2: Proliferation assay (HeLa cell line) median IC50.
Description: Cultivated HeLa human cervical tumor cells (cells were ordered from ATCC CCL-2) were plated at a density of 3000 cells/well in a 96-well multititer plates in 200 microL DMEM/HAMS F12 culture medium (Biochrom F4815) supplemented with 10% fetal calf serum. After 24 hours, the cells of one plate (zero-point plate) were stained with crystal violet (see below), while the medium of the other plates was replaced by fresh culture medium (200 microL) containing the test substances in various concentrations (0 microM, as well as in the range of 0.001-10 microM; the final concentration of the solvent dimethyl sulfoxide was 0.5%). The cells were incubated for 4 days in the presence of test substances. Cell proliferation was determined by staining the cells with crystal violet: the cells were fixed by adding 20 microL/measuring point of an 11% glutaric aldehyde solution for 15 minutes at room temperature. After three washing cycles of the fixed cells with water, the plates were dried at room temperature. The cells were stained by adding 100 microL/measuring point of a 0.1% crystal violet solution (pH 3.0). After three washing cycles of the stained cells with water, the plates were dried at room temperature. The dye was dissolved by adding 100 microL/measuring point of a 10% acetic acid solution. Absorption was determined by photometry at a wavelength of 595 nm. The change of cell number, in percent, was calculated by normalization of the measured values to the absorption values of the zero-point plate (=0%) and the absorption of the untreated (0 microM) cells (=100%). The IC50 values were determined by means of a 4 parameter fit.
Experiment [2] addresses T1, catalytic domain of human Bub1 (amino acids 704-1085) (Homo sapiens, UniProt O43683).
T1 construct: catalytic domain of human Bub1 (amino acids 704-1085); His6 (N); made in house; host or cells: Hi5 insect cells
Description: Bub1 kinase assay (TR-FRET). Format: biochemical. The method, then: To this end, 100-fold concentrated compound solutions (in DMSO) were previously prepared by serial dilution (1:3.4) of 2 mM stocks in a clear low volume 384-well source microtiter plate (Greiner Bio-One, Frickenhausen, Germany), from which 50 nL of compounds were transferred into a black low volume test microtiter plate from the same supplier. […] The resulting mixture (5 μL final volume) was incubated at 22° C. during 60 min., and the reaction was stopped by the addition of 5 μL of an aqueous EDTA-solution (50 mM EDTA, in 100 mM HEPES pH 7.5 and 0.2% (w/v) bovine serum albumin) which also contained the TR-FRET detection reagents (0.2 μM streptavidin-XL665 [Cisbio Bioassays, Codolet, France] and 1 nM anti-phoshoSerine antibody [Merck Millipore, cat. #35-001] and 0.4 nM LANCE EU-W1024 labeled anti-mouse IgG antibody [Perkin-Elmer, product no. AD0077, alternatively a Terbium-cryptate-labeled anti-mouse IgG antibody from Cisbio Bioassays can be used]). The stopped reaction mixture was further incubated 1 h at 22° C. in order to allow the formation of complexes between peptides and detection reagents. Subsequently, the amount of product was evaluated by measurement of the resonance energy transfer from the Eu-chelate-antibody complex recognizing the Phosphoserine residue to the streptavidin-XL665 bound to the biotin moiety of the peptide. […] IC50 values were calculated by fitting the normalized inhibition data to a 4-parameter logistic equation (Minimum, Maximum, IC50, Hill; Y=Max+(Min−Max)/(1+(X/IC50)Hill)).
A general note: In TR-FRET formats the signal depends on donor and acceptor labels being close together.

Structures are written as SMILES. pIC50: −log10 of the molar value. Like-named read-outs stand apart in the source and are kept apart here.

T1 sequence (O43683 704-1085): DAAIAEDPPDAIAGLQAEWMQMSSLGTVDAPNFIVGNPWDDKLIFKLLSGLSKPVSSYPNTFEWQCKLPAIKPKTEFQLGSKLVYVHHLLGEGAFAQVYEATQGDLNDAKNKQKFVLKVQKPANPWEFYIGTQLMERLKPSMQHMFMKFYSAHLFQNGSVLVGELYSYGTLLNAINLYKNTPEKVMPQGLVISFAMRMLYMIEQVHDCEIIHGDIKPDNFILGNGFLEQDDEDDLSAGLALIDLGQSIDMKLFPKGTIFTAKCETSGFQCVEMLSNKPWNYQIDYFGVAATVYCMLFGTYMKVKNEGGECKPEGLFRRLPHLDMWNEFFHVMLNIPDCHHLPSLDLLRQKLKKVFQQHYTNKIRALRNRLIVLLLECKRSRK

Consider `COc1cnc(-c2nn(Cc3nnc(C)o3)c3ccccc23)nc1Nc1ccncc1` [Example 2-2-14, 5-methoxy-2-{1-[(5-methyl-1,3,4-oxadiazol-2-yl)methyl]-1H-indazol-3-yl}-N-(pyridin-4-yl)pyrimidin-4-amine], for which the pIC50 in experiment [1] was less than 5.00; in experiment [2] (TR-FRET, recombinant catalytic domain of human Bub1, ATP 10 μM, peptide substrate 1 μM, 60 min at 22° C., read-out: Biological Assay 1: Bub1 kinase assay median IC50), 6.06.

Consider `CCOC(=O)c1cnccc1Nc1cc(N)nc(-c2nn(Cc3c(C)noc3C)c3ccccc23)n1` [Example 2-3-1, ethyl 4-[(6-amino-2-{1-[(3,5-dimethyl-1,2-oxazol-4-yl)methyl]-1H-indazol-3-yl}pyrimidin-4-yl)amino]pyridine-3-carboxylate], for which the pIC50 was less than 5.00 in experiment [1] and 7.15 in experiment [2].

Regarding `Cc1noc(C)c1Cn1nc(-c2nc(N)cc(Nc3ccncc3)n2)c2ccccc21` [Example 2-3-2, 2-{1-[(3,5-dimethyl-1,2-oxazol-4-yl)methyl]-1H-indazol-3-yl}-N-(pyridin-4-yl)pyrimidine-4,6-diamine], the pIC50 in experiment [1] is 5.17; in experiment [2] it was 7.80.

With `Cc1noc(C)c1Cn1nc(-c2nc(N)cc(Nc3ccncn3)n2)c2ccccc21` [Example 2-3-3, 2-{1-[(3,5-dimethyl-1,2-oxazol-4-yl)methyl]-1H-indazol-3-yl}-N-(pyrimidin-4-yl)pyrimidine-4,6-diamine], the pIC50 in experiment [1] was 6.19; in experiment [2], 7.51.

For the molecule `Cc1noc(C)c1Cn1nc(-c2nc(Nc3ccncc3)cc(Nc3ccncc3)n2)c2ccccc21` [Example 2-3-4, 2-{1-[(3,5-dimethyl-1,2-oxazol-4-yl)methyl]-1H-indazol-3-yl}-N,N′-di(pyridin-4-yl)pyrimidine-4,6-diamine], the pIC50 in experiment [1] is 5.40; in experiment [2] it was 6.48.

On to `Cc1noc(C)c1Cn1nc(-c2nc(Nc3ccncn3)cc(Nc3ccncn3)n2)c2ccccc21` [Example 2-3-5, 2-{1-[(3,5-dimethyl-1,2-oxazol-4-yl)methyl]-1H-indazol-3-yl}-N,N′-di(pyrimidin-4-yl)pyrimidine-4,6-diamine], for which the values for the pIC50 in experiment [1] and in experiment [2] were less than 5.00 and 6.82, respectively.
